Laboratory results from paper PMC7692337, “Masked Phenolic-Selenium Conjugates: Potent and Selective Antiproliferative Agents Overcoming P-gp Resistance” (Pharmaceuticals, 2020).
Where two headings read alike, the source gives them in different places.

Legend:
SW1573 = assay: P-glycoprotein assay, wild type line; type: cell-based; settings: Homo sapiens, 48 h exposure
Experimental: (§1) This assay allows prediction of whether a certain chemotherapeutic agent could develop chemoresistance when behaving as a P-gp substrate, one of the most common efllux-pumps used for the extrusion of cell xenobiotics. For that purpose, a cell line-based assay was used, in particular the lung cancer cell line in its wild type (SW1573), and its variant overexpressing P-gp (Sw1573/Pgp). Moreover, compounds were tested in the presence and in the absence of verapamil, which is known to inhibit P-gp. Chemotherapeutic agents paclitaxel (PTX) and vinblastine (VB) are used herein as reference compounds. In this assay, the resistance factor (Rf) for a certain compound is defined as the ratio of GI50 in the cell line overexpressing P-gp and the wild one (Table 4), high values of Rf denoting that the compound behaves as a P-gp substrate, and thus, chemoresistance through this mechanism will probably take place.

BJ-hTert (fibroblasts) = assay: Antiproliferative activity on non-tumour cells, NCI protocol; type: cell-based, human; settings: non-tumour cell line; for GI50: read-out: GI50 BJ-hTert (Fibroblasts)
Experimental: (§2) Organochalcogen derivatives prepared herein were evaluated in vitro as potential antiproliferative agents, using a panel of six human tumour cell lines: A549 (non-small cell lung), HBL-100 (breast), HeLa (cervix), SW1573 (non-small cell lung), as drug sensitive lines, T-47D (breast) and WiDr (colon) as drug resistant lines. In addition to precursors 2, 6, 7, 13, 14, 17, 19, ebselen and cisplatin (CDDP) were used as reference drugs. […] In both cases, the NCI protocol, with minor modifications, was followed; selected data, including the selectivity index (S.I.) can be found in Table 3 and full data in Supporting Information (Table S1).
(§3) The in vitro antiproliferative activity was assayed using minor modifications of the protocol of the National Cancer Institute (NCI) of the United States against the six human solid tumor cell and the non-tumor cell lines tested.

HBL-100 (breast) = assay: Antiproliferative activity, NCI protocol; type: cell-based, human
Experimental: as §2, §3

HeLa (cervix) = assay: Antiproliferative activity, NCI protocol; type: cell-based, human
Experimental: as §2, §3

T-47D (breast) = assay: Antiproliferative activity, NCI protocol; type: cell-based, human; settings: for GI50: read-out: GI50 T-47D (Breast)
Experimental: as §2, §3

[1] = tested on: SW1573 (non-small cell lung); assay: Antiproliferative activity, NCI protocol; type: cell-based, human
Experimental: as §2, §3

[2] = tested on: A549 (non-small cell lung); assay: Antiproliferative activity, NCI protocol; type: cell-based, human
Experimental: as §2, §3

WiDr (colon) = assay: Antiproliferative activity, NCI protocol; type: cell-based, human; settings: for GI50: read-out: GI50 WiDr (Colon)
Experimental: as §2, §3

[3] = tested on: six human tumour cell lines (A549, HBL-100, HeLa, SW1573, T-47D, WiDr); assay: Antiproliferative activity, panel of six human tumour cell lines; type: cell-based; settings: summary over the tested tumour cell lines, highest tested concentration 100 µM; for GI50: Homo sapiens, read-out: GI50 over the tumour cell lines (range, bound or words)
Experimental: as §2, §3

SW1573/Pgp = assay: P-glycoprotein assay, line overexpressing P-gp; type: cell-based, human; settings: ratio between GI50 values in SW1573/PGP and SW1573 cells; for Rf w Verapamil: with verapamil; for Rf w/o Verapamil: without verapamil
Experimental: as §1

[4] = P-glycoprotein assay, line overexpressing P-gp; type: cell-based, human; settings: human, 48 h exposure
Experimental: as §1

[5] = Free radical scavenging (DPPH method); settings: 30 min incubation, absorbance at 515 nm, read-out: EC50 antiradical activity (DPPH)
Experimental: (§4) In vitro antioxidant properties of key unprotected phenolic derivatives were analyzed using two different methodologies: free radical scavenging capacity, using the DPPH method (2,2-diphenyl-1-picrylhydrazyl), a HAT (hydrogen atom transfer) procedure, widely-used for both natural and synthetic derivatives, and also the capacity for scavenging H2O2, one of the most common ROS in degenerative diseases, including cancer.
DPPH is a commercially-available stable free radical commonly used for in vitro testing of radical scavenging properties of antioxidants.
Reported methodology was used with minor modifications. To a 60 µM methanolic DPPH solution (1.17 mL), the antioxidant solution (5–7 different solutions, 30 µL) or solvent (control, 30 µL) were added. After 30 min. of incubation in the dark, absorbance was measured at 515 nm, and EC50 values were calculated.

[6] = H2O2 scavenging (phenol red / horseradish peroxidase); settings: At 50 µM
Experimental: as §4
Herein, following Bahorun’s methodology, in vitro levels of H2O2 were measured in an indirect fashion, by registering the H2O2-mediated oxidation of phenol red in the presence of horseradish peroxidase, to give a chromophore with a maximum absorption at 610 nm. Accordingly, in the presence of an antioxidant agent, there is an inverse correlation between the observed absorbance, and the scavenging properties. Table 2 depicts the H2O2-scavenging properties of compounds prepared herein, and tested at a final 50 µM concentration.
Reported methodology was used with minor modifications.

[7] = with verapamil, read-out: GI50 SW153 w Verapamil
[8] = without verapamil, read-out: GI50 SW1573 w/o Verapamil
[9] = Homo sapiens, HBL-100; read-out: GI50 HBL-100 (Breast)
[10] = Homo sapiens, HeLa; read-out: GI50 HeLa (Cervix)
[11] = Homo sapiens, T47D, drug resistant line
[12] = Homo sapiens, SW1573, Table S1, read-out: GI50 SW1573 (Lung)
[13] = Homo sapiens, A549; read-out: GI50 A549 (Lung)
[14] = Homo sapiens, WiDr, drug resistant line
[15] = with verapamil (concentration not stated), with verapamil, read-out: GI50 SW1573/PGP w Verapamil
[16] = without verapamil, read-out: GI50 SW1573/PGP w/o Verapamil
[17] = read-out: GI50 HBL-100 (Breast)
[18] = Table S1, read-out: GI50 SW1573 (Lung)

Row | Compound | GI50 (SW1573; [7]) | GI50 (SW1573; [8]) | GI50 (BJ-hTert (fibroblasts); Homo sapiens, Fibroblast) | GI50 (HBL-100 (breast); [9]) | GI50 (HeLa (cervix); [10]) | GI50 (T-47D (breast); [11]) | GI50 [1, 12] | GI50 [2, 13] | GI50 (WiDr (colon); [14]) | GI50 over the tumour cell lines (range, bound or words) [3] | Rf w Verapamil (SW1573/Pgp) | Rf w/o Verapamil (SW1573/Pgp) | GI50 at 48 h [4, 15] | GI50 at 48 h [4, 16] | EC50 [5] | % Scavenging of H2O2 [6] | other results
1 | N#C[Se]Cc1ccc2c(c1)OCO2 [Compound 35, (3′,4′-Methylenedioxyphenyl)methyl selenocyanate] | 3.1 ± 1 µM | 2.3 ± 0.5 µM | 8.7 ± 3.2 µM | 3.5 ± 1.4 µM | 3.5 ± 0.8 µM | 3.4 ± 0.2 µM | 4.4 ± 0.5 µM | 3.1 ± 0.7 µM | 2 ± 0.1 µM | low micromolar‒submicromolar activities | 2.3 | 3.1 | 7 ± 0.6 µM | 7.1 ± 0.6 µM | – | – | –
2 | O=C(CCCSSCCCC(=O)NCCc1ccc(O)c(O)c1)NCCc1ccc(O)c(O)c1 [Compound 10] | – | – | – | > 100 µM | > 100 µM | > 100 µM | > 100 µM | > 100 µM | > 100 µM | negligible activities | – | – | – | – | 15.3 ± 0.1 µM | 11.8 ± 0.5% | –
3 | N-[2′-(3′’,4′’-Dihydroxyphenyl)ethyl]-3-phenylselenopropanamide [Compound 18] | – | – | – | – | – | – | – | – | – | moderate antiproliferative properties | – | – | – | – | 23.2 ± 0.6 µM | 19.0 ± 0.8% | GI50 (HBL-100 (breast); [17]): 34 ± 1 µM; GI50 (HeLa (cervix); read-out: GI50 HeLa (Cervix)): 23 ± 1 µM; GI50 (T-47D (breast); drug resistant line): 71 ± 5 µM; GI50 [1, 18]: 28 ± 4 µM; GI50 ([2]; read-out: GI50 A549 (Lung)): 33 ± 5 µM; GI50 (WiDr (colon); drug resistant line): 85 ± 21 µM
4 | c1cc2c(cc1CC[Se][Se]CCc1ccc3c(c1)OCO3)OCO2 [Compound 40, Bis[2-(3′,4′-methylenedioxyphenyl)ethyl]diselenide] | 1.8 ± 0.2 µM | 1.9 ± 0.1 µM | 28 ± 5 µM | 2 ± 0.9 µM | 0.95 ± 0.07 µM | 0.88 ± 0.17 µM | 2.7 ± 0.3 µM | 1.6 ± 0.5 µM | 1.2 ± 0.1 µM | low micromolar‒submicromolar activities | 2.5 | 2.0 | 4.5 ± 1 µM | 3.9 ± 0.2 µM | – | – | –
5 | O=C(CCC[Se][Se]CCCC(=O)NCCc1ccc(O)c(O)c1)NCCc1ccc(O)c(O)c1 [Compound 16, 4,4′-Diselenobis{N-[2′’-(3′’’,4′’’-dihydroxyphenyl)ethyl]butanamide}] | 2.3 ± 0.3 µM | 2.7 ± 0.3 µM | 3.5 ± 0.6 µM | 2.4 ± 0.6 µM | 2.3 ± 0.4 µM | 5.8 ± 0.9 µM | 3 ± 0.2 µM | 3.7 ± 0.6 µM | 3.9 ± 0.6 µM | – | 2.2 | 1.9 | 5.1 ± 0.4 µM | 5.1 ± 0.6 µM | 9.3 ± 1.3 µM | – | GI50 [3]: < 6 µM
6 | N#C[Se]CCCC(=O)NCCc1ccc2c(c1)OCO2 [Compound 45, N-[2′-(3′,4′-Methylenedioxyphenyl)ethyl]-4-selenocyanatobutanamide] | 1.1 ± 0.1 µM | 1.1 ± 0.2 µM | 1.8 ± 0.7 µM | 1.6 ± 0.3 µM | 0.36 ± 0.09 µM | 0.4 ± 0.04 µM | 0.81 ± 0.02 µM | 0.41 ± 0.03 µM | 0.41 ± 0.03 µM | – | 2.3 | 3.1 | 2.5 ± 0.1 µM | 3.3 ± 0.6 µM | – | – | GI50 [3]: 0.36 to 1.6 µM
7 | N#C[Se]CCC(=O)NCCc1ccc(O)c(O)c1 [Compound 20, N-[2′-(3′’,4′’-Dihydroxyphenyl)ethyl]-3-selenocyanatopropanamide] | – | – | – | – | – | – | – | – | – | moderate antiproliferative properties | – | – | – | – | 10.8 ± 0.4 µM | 25.8 ± 1.0% | GI50 (HBL-100 (breast); Homo sapiens, HBL-100, read-out: GI50 HBL-100 (Breast)): 37 ± 2 µM; GI50 (HeLa (cervix); Homo sapiens, HeLa, read-out: GI50 HeLa (Cervix)): 19 ± 8 µM; GI50 (T-47D (breast); Homo sapiens, T47D): 35 ± 1 µM; GI50 ([1]; Homo sapiens, SW1573, read-out: GI50 SW1573 (Lung)): 24 ± 8 µM; GI50 ([2]; Homo sapiens, A549, read-out: GI50 A549 (Lung)): 28 ± 8 µM; GI50 (WiDr (colon); Homo sapiens, WiDr): 41 ± 10 µM
8 | N#C[Se]CCc1ccc2c(c1)OCO2 [Compound 36, 2-(3′,4′-Methylendioxyphenyl)ethyl selenocyanate] | 3.1 ± 0.4 µM | 4.2 ± 0.7 µM | 14 ± 2 µM | 2.1 ± 0.2 µM | 1.2 ± 0.2 µM | 1.1 ± 0.3 µM | 3.8 ± 0.1 µM | 1.8 ± 0.7 µM | 1.3 ± 0.6 µM | low micromolar‒submicromolar activities | 1.7 | 1.6 | 5.3 ± 0.6 µM | 6.8 ± 0.4 µM | – | – | –
9 | [NH2][Pt]([NH2])([Cl])[Cl] [CDDP, cisplatin, reference compound] | – | – | – | – | – | – | – | – | – | – | – | – | – | – | – | – | GI50 (BJ-hTert (fibroblasts)): 14 ± 2 µM; GI50 (HBL-100 (breast); [17]): 1.9 ± 0.2 µM; GI50 (HeLa (cervix); read-out: GI50 HeLa (Cervix)): 2 ± 0.3 µM; GI50 (T-47D (breast); drug resistant line): 15 ± 2 µM; GI50 [1, 18]: 3.4 ± 0.7 µM; GI50 ([2]; read-out: GI50 A549 (Lung)): 4.9 ± 0.2 µM; GI50 (WiDr (colon); drug resistant line): 26 ± 6 µM
10 | O=C(CSSCC(=O)NCCc1ccc(O)c(O)c1)NCCc1ccc(O)c(O)c1 [Compound 8, 2,2′-Dithiobis{N-[2′’-(3′’’,4′’’-dihydroxyphenyl)ethyl]acetamide}] | – | – | – | > 100 µM | > 100 µM | > 100 µM | > 100 µM | > 100 µM | > 100 µM | negligible activities | – | – | – | – | 12.3 ± 0.5 µM | 26.5 ± 2.1% | –
11 | N#C[Se]CCCc1ccc2c(c1)OCO2 [Compound 37, 3-(3’,4’-Methylenedioxyphenyl)propyl selenocyanate] | – | – | – | – | – | – | – | – | – | – | – | – | – | – | – | – | GI50 BJ-hTert (Fibroblasts) (BJ-hTert (fibroblasts)): Not soluble; GI50 HBL-100 (Breast) (HBL-100 (breast)): Not soluble; GI50 HeLa (Cervix) (HeLa (cervix)): Not soluble; GI50 T-47D (Breast) (T-47D (breast); drug resistant line): Not soluble; GI50 A549 (Lung) [2]: Not soluble; GI50 WiDr (Colon) (WiDr (colon); drug resistant line): Not soluble
